Entries after “also recorded” stand apart in the source; their conditions may differ.
Key:
[1] = molecular target: T1, breast cancer resistance protein (BCRP) (Homo sapiens, UniProt Q9UNQ0); test: BCRP substrate and efflux inhibition in vitro; format: in vitro ADME
T1 sequence (Q9UNQ0 1-655): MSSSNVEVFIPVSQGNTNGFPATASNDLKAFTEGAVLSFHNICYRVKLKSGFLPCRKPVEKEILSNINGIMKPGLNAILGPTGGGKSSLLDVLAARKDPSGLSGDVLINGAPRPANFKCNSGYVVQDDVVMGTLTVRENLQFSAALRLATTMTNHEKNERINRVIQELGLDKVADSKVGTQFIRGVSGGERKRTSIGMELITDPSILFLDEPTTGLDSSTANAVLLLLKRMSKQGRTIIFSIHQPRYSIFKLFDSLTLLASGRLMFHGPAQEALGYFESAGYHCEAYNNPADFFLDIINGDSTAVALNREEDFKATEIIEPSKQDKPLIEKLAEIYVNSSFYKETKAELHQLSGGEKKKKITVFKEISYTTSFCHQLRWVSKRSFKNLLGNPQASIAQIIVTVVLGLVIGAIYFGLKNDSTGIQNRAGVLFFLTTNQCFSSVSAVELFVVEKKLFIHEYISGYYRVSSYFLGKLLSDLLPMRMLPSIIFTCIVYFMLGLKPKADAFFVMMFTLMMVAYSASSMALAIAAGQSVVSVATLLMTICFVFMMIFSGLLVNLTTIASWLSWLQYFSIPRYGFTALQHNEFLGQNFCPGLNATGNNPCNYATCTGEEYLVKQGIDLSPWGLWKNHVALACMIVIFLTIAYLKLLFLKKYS

[2] = Phase 1 SAD plasma pharmacokinetics; format: in vivo, human; settings: for Tmax: healthy volunteers
Text: Initially, a dose range of Compound A in single ascending dose (SAD) escalation cohorts will be explored in adult HVs (Part A). […] Safety and PK data from at least 3 completed SAD cohorts will determine initiation of and appropriate doses for the 14-day multiple ascending dose (MAD) portion of the study (Part B).
The graphical assessment of dose proportionality will be performed for AUC and Cmax. Relative bioavailability of food effect will be assessed based on AUC and Cmax.

[3] = Phase 1 SAD safety and tolerability; format: in vivo, human
Description: The safety data up to 24-hours post-dose for these sentinel HVs will be reviewed by the Investigator to ensure acceptable tolerability before commencing administration of the investigational product to the remaining HVs in the cohort. Sequential dosing of HVs within a cohort will be staggered so that there will be at least a gap of 10 minutes between dosing of individual HVs. After the completion of each dose level, the blinded interim PK data through Day 5 and safety data through Day 14 will be reviewed by the SRC before proceeding to the next dose level. Each subsequent dose administration will be performed, if in the judgment of the Investigator and Safety Physician, the results of the safety analyses of the preceding dose administration are satisfactory.
All data will be fully listed.

[4] = blinded SAD safety, per Investigator assessment

With Cn1c(=O)n([C@@H]2CCC(=O)NC2=O)c2cccc(C#CCOC3CCN(C[C@H]4CC[C@H](n5cc(NC(=O)c6cnn7ccc(N8C[C@H]9C[C@@H]8CO9)nc67)c(C(F)F)n5)CC4)CC3)c21 [Compound A, 5-((1R,4R)-2-oxa-5-azabicyclo[2.2.1]heptan-5-yl)-N-(3-(difluoromethyl)-1-((1r,4R)-4-((4-((3-(1-(2,6-dioxopiperidin-3-yl)-3-methyl-2-oxo-2,3-dihydro-1H-benzo[d]imidazol-4-yl)prop-2-yn-1-yl)oxy)piperidin-1-yl)methyl)cyclohexyl)-1H-pyrazol-4-yl)pyrazolo[1,5-a]pyrimidine-3-carboxamide] as the compound, how does the BCRP efflux inhibition [1] read?
The BCRP efflux inhibition was “inhibited BCRP efflux”.

And the BCRP substrate [1]?
The BCRP substrate was “substrate”.

What about the Dose-dependent plasma exposures ([2]; SAD) of the same compound?
Its Dose-dependent plasma exposures is “plateaued after 1000 mg”.

And the half-life ([2]; human, plasma, oral, after single dosing, across SAD cohorts)?
The half-life was 25 to 40 h.

And the Tmax ([2]; human, plasma, SAD 1, single oral dose 25 mg)?
The Tmax was 8 h.

What about the Tmax ([2]; human, plasma, SAD 2, single oral dose 75 mg) of the same compound?
The Tmax was 7 h.

What about the Tmax ([2]; human, plasma, SAD 3, single oral dose 150 mg) of the same compound?
The Tmax was 9 h.

What about the Tmax ([2]; human, plasma, SAD 4, single oral dose 300 mg) of the same compound?
Its Tmax is 8 h.

And the Tmax ([2]; human, plasma, SAD 6, single oral dose 1000 mg)?
The Tmax was 20 h.

And the ECG changes ([3]; SAD)?
Its ECG changes is “No significant ECG changes”.

And the QTcF prolongation ([3]; SAD)?
The QTcF prolongation was “no clinically significant QTcF prolongation”.

What about the Serious adverse events ([3]; SAD) of the same compound?
The Serious adverse events was “no serious adverse events; also recorded: No SAEs”.

And the AST elevation ([3]; SAD 5, n=1, resolution ~Day 21)?
Its AST elevation is 3.8 × ULN.

And the ALT elevation ([3]; SAD 5, n=1, slow resolution to baseline)?
The ALT elevation was 2.5 × ULN.

What about the “Study treatment related AEs, Abdominal pain, #AEs” value [3, 4] of the same compound?
The value was 1.

What about the “Study treatment related AEs, Diarrhea, #AEs” value [3, 4] of the same compound?
Its value is 2.

What about the “Study treatment related AEs, Diarrhea, (subjects)” value [3, 4] of the same compound?
The value was “(2)”.

And the “Study treatment related AEs, Headache, #AEs” value [3, 4]?
Its value is 5.

And the “Study treatment related AEs, Headache, (subjects)” value [3, 4]?
The value was “(4)”.

And the “Study treatment related AEs, Muscle weakness, #AEs” value [3, 4]?
Its value is 1.

What about the “Study treatment related AEs, Myalgia, #AEs” value [3, 4] of the same compound?
Its value is 1.

What about the “Study treatment related AEs, Nausea, #AEs” value [3, 4] of the same compound?
Its value is 3.

And the “Study treatment related AEs, Nausea, (subjects)” value [3, 4]?
Its value is “(3)”.

And the “Study treatment related AEs, Palpitations, #AEs” value [3, 4]?
The value was 1.

And the “Study treatment related AEs, Vomiting, #AEs” value [3, 4]?
Its value is 2.

And the “Study treatment related AEs, Vomiting, (subjects)” value [3, 4]?
The value was “(1)”.

What about the Safety and tolerability ([3]; single doses, SAD) of the same compound?
Its Safety and tolerability is “safe and well-tolerated”.

— patent publication US12171768B2, “IRAK4 degraders and uses thereof” (priority 2021, dated 2024)
